One may read the Papp as the rate of passage across a membrane or cell layer, normalised by area and donor concentration. High values mean fast passage, low ones slow passage.

*1 amine or outer side, *2 acyl side, *3 side chain or, on linkers, in order; H or OH if unused. Where a SMILES comes first, the peptide text is derived from it. Bridges are numbered along the chain shown (N, C = ends). [ ]: non-standard residue; d: D form. The star is where a group is joined. ξ: configuration not given here. dhPhe(4-CONHMe,3-OMe) = CNC(=O)c1ccc(CC[C@@H](N)C(=O)O)cc1OC; hPhe(3-OMe,4-CONHMe) = CNC(=O)c1ccc(CC[C@H](N)C(=O)O)cc1OC; X11 = CNC(=O)c1ccc(CCN(CC(=O)[*:2])[*:1])cc1OC; NMeF = CN[C@@H](Cc1ccccc1)C(=O)O; NMeGABA = CN(CCCC(=O)[*:2])[*:1]; ξThr(3R) = C[C@@H](O)C(N)C(=O)O; NMeL = CN[C@@H](CC(C)C)C(=O)O; ξNMeF = CNC(Cc1ccccc1)C(=O)O; NMeV = CN[C@H](C(=O)O)C(C)C; NMeAbu = CC[C@H](NC)C(=O)O; NMeA = CN[C@@H](C)C(=O)O; Piperidide = C1CCN(*)CC1; NBuGly = CCCCNCC(=O)O; Sar = CNCC(=O)O; tBu = CC(C)(C)*

This data set can be described thus: in vitro. Conditions: human, Caco-2, Caco-2 (cm/sec).
As to `CNC(=O)c1ccc(CC[C@@H]2NC(=O)[C@H](CC(C)C)N(C)C(=O)CCCN(C)C(=O)C[C@@H](C(=O)N3CCCCC3)NC(=O)[C@H](CC(C)C)N(C)C(=O)[C@H](CC(C)C)N(C)C(=O)[C@H]([C@@H](C)O)NC(=O)[C@H](CC(C)C)N(C)C(=O)[C@H](COC(C)(C)C)NC(=O)[C@H](Cc3ccccc3)N(C)C(=O)[C@H](CC(C)C)N(C)C2=O)cc1OC` [AP203] ([NMeGABA][NMeL][hPhe(3-OMe,4-CONHMe)][NMeL][NMeF]S(tBu)[NMeL]T[NMeL][NMeL]D-Piperidide; lactam N-11), the Papp stood at 0.41 ×10⁻⁶ cm/s.
`CC[C@H]1C(=O)N[C@@H](CC(C)C)C(=O)N(C)[C@@H](CC(C)C)C(=O)N(C)C(Cc2ccccc2)C(=O)N[C@@H](CCc2ccc(C(=O)NC)c(OC)c2)C(=O)N(C)[C@@H](CC(C)C)C(=O)N(C)[C@@H](CC(C)C)C(=O)N[C@@H]([C@@H](C)O)C(=O)N(C)CC(=O)N(C)[C@@H](CC(C)C)C(=O)N[C@H](C(=O)N2CCCCC2)CC(=O)N1C` (stereo partly drawn) [AP204] ([NMeAbu]L[NMeL][ξNMeF][hPhe(3-OMe,4-CONHMe)][NMeL][NMeL]T[Sar][NMeL]D-Piperidide; lactam N-11) showed an apparent permeability coefficient (Papp) of 1.6 ×10⁻⁶ cm/s.
Take `CC[C@H]1C(=O)N[C@@H](CCc2ccc(C(=O)NC)c(OC)c2)C(=O)N(C)[C@@H](CC(C)C)C(=O)N(C)[C@@H](CC(C)C)C(=O)N[C@@H](C(C)C)C(=O)N(C)[C@@H](Cc2ccccc2)C(=O)N(C)[C@@H](CC(C)C)C(=O)N[C@@H]([C@@H](C)O)C(=O)N(C)CC(=O)N(C)[C@@H](CC(C)C)C(=O)N[C@H](C(=O)N2CCCCC2)CC(=O)N1C` [AP205] ([NMeAbu][hPhe(3-OMe,4-CONHMe)][NMeL][NMeL]V[NMeF][NMeL]T[Sar][NMeL]D-Piperidide; lactam N-11): the apparent permeability (Papp) was 0.79 ×10⁻⁶ cm/s.
In turn, `CCCCN1CC(=O)N(C)[C@@H](Cc2ccccc2)C(=O)N(C)[C@@H](CC(C)C)C(=O)N[C@@H](CC(C)C)C(=O)N(C)[C@@H](CC(C)C)C(=O)N[C@H](C(=O)N2CCCCC2)CC(=O)N(C)CC(=O)N(C)[C@@H](CC(C)C)C(=O)N[C@@H](CCc2ccc(C(=O)NC)c(OC)c2)C(=O)N(C)[C@@H](CC)C(=O)N[C@@H]([C@@H](C)O)C1=O` [AP206] ([Sar][NMeL][hPhe(3-OMe,4-CONHMe)][NMeAbu]T[NBuGly][NMeF][NMeL]L[NMeL]D-Piperidide; lactam N-11) yielded a Papp of 0.86 ×10⁻⁶ cm/s. This Papp and that of the molecule before are within 1.5-fold of each other.
`CCCCN1CC(=O)N(C)[C@@H](Cc2ccccc2)C(=O)N(C)[C@@H](CC(C)C)C(=O)N[C@@H](CCc2ccc(C(=O)NC)c(OC)c2)C(=O)N(C)[C@@H](CC(C)C)C(=O)N[C@H](C(=O)N2CCCCC2)CC(=O)N(C)CC(=O)N(C)[C@@H](CC(C)C)C(=O)N[C@@H]([C@@H](C)CC)C(=O)N(C)[C@@H](CC(C)C)C(=O)N[C@@H]([C@@H](C)O)C1=O` [AP207] ([Sar][NMeL]I[NMeL]T[NBuGly][NMeF][NMeL][hPhe(3-OMe,4-CONHMe)][NMeL]D-Piperidide; lactam N-11) showed a Papp of 0.51 ×10⁻⁶ cm/s.
Molecule `CNC(=O)c1ccc(CC[C@H]2NC(=O)[C@H](CC(C)C)N(C)C(=O)CN(C)C(=O)C([C@@H](C)O)NC(=O)[C@H](CC(C)C)N(C)C(=O)[C@H](CC(C)C)NC(=O)[C@H](Cc3ccccc3)N(C)C(=O)[C@@H](C(C)C)NC(=O)C[C@@H](C(=O)N3CCCCC3)NC(=O)[C@H](CC(C)C)N(C)C(=O)[C@H](CC(C)C)N(C)C2=O)cc1OC` (stereo partly drawn) [AP208] ([dV][NMeF]L[NMeL][ξThr(3R)][Sar][NMeL][dhPhe(4-CONHMe,3-OMe)][NMeL][NMeL]D-Piperidide; lactam N-11) displayed a Papp of 0.6 ×10⁻⁶ cm/s.
For `CCCCN1CC(=O)N(C)[C@@H](CC(C)C)C(=O)N[C@@H](COC(C)(C)C)C(=O)N(C)[C@@H](CC(C)C)C(=O)N(C)[C@@H](CC)C(=O)N[C@H](C(=O)N2CCCCC2)CC(=O)N[C@H](CC(C)C)C(=O)N(C)[C@@H](Cc2ccccc2)C(=O)N[C@H](CCc2ccc(C(=O)NC)c(OC)c2)C(=O)N(C)[C@@H](CC(C)C)C(=O)N[C@@H]([C@@H](C)O)C1=O` [AP209] ([dL][NMeF][dhPhe(4-CONHMe,3-OMe)][NMeL]T[NBuGly][NMeL]S(tBu)[NMeL][NMeAbu]D-Piperidide; lactam N-11), the Papp came to 0.56 ×10⁻⁶ cm/s.
`CC[C@H](C)[C@@H]1NC(=O)[C@H](CC(C)C)N(C)C(=O)CCCN(C)C(=O)C[C@@H](C(=O)N2CCCCC2)NC(=O)[C@H](CC(C)C)N(C)C(=O)[C@H](CC(C)C)N(C)C(=O)[C@H]([C@@H](C)O)NC(=O)[C@H](CC(C)C)N(C)C(=O)[C@@H](CCc2ccc(C(=O)NC)c(OC)c2)NC(=O)[C@H](CC(C)C)N(C)C(=O)[C@H](Cc2ccccc2)N(C)C1=O` [AP210] ([NMeGABA][NMeL]I[NMeF][NMeL][dhPhe(4-CONHMe,3-OMe)][NMeL]T[NMeL][NMeL]D-Piperidide; lactam N-11) had an apparent permeability (Papp) of 0.34 ×10⁻⁶ cm/s. Compared with the last molecule, the Papp is about 1.6-fold lower.
`CNC(=O)c1ccc(CC[C@H]2NC(=O)[C@H](CC(C)C)N(C)C(=O)CCCN(C)C(=O)C[C@@H](C(=O)N3CCCCC3)NC(=O)[C@H](CC(C)C)N(C)C(=O)[C@H](CC(C)C)N(C)C(=O)[C@H]([C@@H](C)O)NC(=O)[C@H](CC(C)C)N(C)C(=O)[C@H](COC(C)(C)C)NC(=O)[C@H](Cc3ccccc3)N(C)C(=O)[C@H](CC(C)C)N(C)C2=O)cc1OC` [AP211] ([NMeGABA][NMeL][dhPhe(4-CONHMe,3-OMe)][NMeL][NMeF]S(tBu)[NMeL]T[NMeL][NMeL]D-Piperidide; lactam N-11): the Papp is 0.36 ×10⁻⁶ cm/s. The Papp values of the last two molecules are within 1.5-fold of each other.
For the molecule `CC[C@H]1C(=O)N[C@@H](CC(C)C)C(=O)N(C)[C@@H](CC(C)C)C(=O)N(C)[C@@H](Cc2ccccc2)C(=O)N[C@H](CCc2ccc(C(=O)NC)c(OC)c2)C(=O)N(C)[C@@H](CC(C)C)C(=O)N(C)[C@@H](CC(C)C)C(=O)N[C@@H]([C@@H](C)O)C(=O)N(C)CC(=O)N(C)[C@@H](CC(C)C)C(=O)N[C@H](C(=O)N2CCCCC2)CC(=O)N1C` [AP212] ([NMeAbu]L[NMeL][NMeF][dhPhe(4-CONHMe,3-OMe)][NMeL][NMeL]T[Sar][NMeL]D-Piperidide; lactam N-11), the apparent permeability coefficient (Papp) came to 0.64 ×10⁻⁶ cm/s.
As for `CC[C@H]1C(=O)N[C@H](CCc2ccc(C(=O)NC)c(OC)c2)C(=O)N(C)[C@@H](CC(C)C)C(=O)N(C)[C@@H](CC(C)C)C(=O)N[C@@H](C(C)C)C(=O)N(C)[C@@H](Cc2ccccc2)C(=O)N(C)[C@@H](CC(C)C)C(=O)N[C@@H]([C@@H](C)O)C(=O)N(C)CC(=O)N(C)[C@@H](CC(C)C)C(=O)N[C@H](C(=O)N2CCCCC2)CC(=O)N1C` [AP213] ([NMeAbu][dhPhe(4-CONHMe,3-OMe)][NMeL][NMeL]V[NMeF][NMeL]T[Sar][NMeL]D-Piperidide; lactam N-11), the Papp stood at 0.34 ×10⁻⁶ cm/s.
On to `CCCCN1CC(=O)N(C)[C@@H](Cc2ccccc2)C(=O)N(C)[C@@H](CC(C)C)C(=O)N[C@@H](CC(C)C)C(=O)N(C)[C@@H](CC(C)C)C(=O)N[C@H](C(=O)N2CCCCC2)CC(=O)N(C)CC(=O)N(C)[C@@H](CC(C)C)C(=O)N[C@H](CCc2ccc(C(=O)NC)c(OC)c2)C(=O)N(C)[C@@H](CC)C(=O)N[C@@H]([C@@H](C)O)C1=O` [AP214] ([Sar][NMeL][dhPhe(4-CONHMe,3-OMe)][NMeAbu]T[NBuGly][NMeF][NMeL]L[NMeL]D-Piperidide; lactam N-11), for which the apparent permeability coefficient (Papp) stood at 0.84 ×10⁻⁶ cm/s.
As to `CCCCN1CC(=O)N(C)[C@@H](Cc2ccccc2)C(=O)N(C)[C@@H](CC(C)C)C(=O)N[C@H](CCc2ccc(C(=O)NC)c(OC)c2)C(=O)N(C)[C@@H](CC(C)C)C(=O)N[C@H](C(=O)N2CCCCC2)CC(=O)N(C)CC(=O)N(C)[C@@H](CC(C)C)C(=O)N[C@@H]([C@@H](C)CC)C(=O)N(C)[C@@H](CC(C)C)C(=O)N[C@@H]([C@@H](C)O)C1=O` [AP215] ([Sar][NMeL]I[NMeL]T[NBuGly][NMeF][NMeL][dhPhe(4-CONHMe,3-OMe)][NMeL]D-Piperidide; lactam N-11), the Papp came out at 0.43 ×10⁻⁶ cm/s.
Next, `CC[C@H]1C(=O)N[C@@H]([C@@H](C)O)C(=O)N(CCc2ccc(C(=O)NC)c(OC)c2)CC(=O)N(C)[C@@H](CC(C)C)C(=O)N[C@@H](COC(C)(C)C)C(=O)N(C)[C@@H](CC(C)C)C(=O)N(C)[C@@H](CC(C)C)C(=O)N[C@H](C(=O)N2CCCCC2)CC(=O)N[C@H](C)C(=O)N(C)[C@@H](Cc2ccccc2)C(=O)N[C@@H](CC(C)C)C(=O)N1C` [AP216] ([dA][NMeF]L[NMeAbu]T[X11][NMeL]S(tBu)[NMeL][NMeL]D-Piperidide; lactam N-11): 0.99 ×10⁻⁶ cm/s; `CC[C@H]1C(=O)N(C)[C@@H](Cc2ccccc2)C(=O)N[C@@H](C)C(=O)N(C)[C@@H](CC(C)C)C(=O)N(C)[C@@H](CC(C)C)C(=O)N[C@@H]([C@@H](C)O)C(=O)N(CCc2ccc(C(=O)NC)c(OC)c2)CC(=O)N(C)[C@@H](CC(C)C)C(=O)N[C@H](C(=O)N2CCCCC2)CC(=O)N(C)[C@@H](C(C)C)C(=O)N[C@@H](CC(C)C)C(=O)N1C` [AP217] ([NMeV]L[NMeAbu][NMeF]A[NMeL][NMeL]T[X11][NMeL]D-Piperidide; lactam N-11): 1 ×10⁻⁶ cm/s; `CC[C@H](C)[C@@H]1NC(=O)[C@H](CC(C)C)N(C)C(=O)CN(C)C(=O)C[C@@H](C(=O)N2CCCCC2)NC(=O)[C@H](CC(C)C)N(C)C(=O)[C@H](COC(C)(C)C)NC(=O)[C@H](CC(C)C)N(C)C(=O)[C@H](Cc2ccccc2)N(C)C(=O)CN(CCc2ccc(C(=O)NC)c(OC)c2)C(=O)[C@H]([C@@H](C)O)NC(=O)[C@H](CC)N(C)C1=O` [AP218] ([Sar][NMeL]I[NMeAbu]T[X11][NMeF][NMeL]S(tBu)[NMeL]D-Piperidide; lactam N-11): 0.55 ×10⁻⁶ cm/s.
The result for `CC[C@H]1C(=O)N[C@@H]([C@@H](C)O)C(=O)N(C)CC(=O)N(C)[C@@H](Cc2ccccc2)C(=O)N(C)[C@@H](CC(C)C)C(=O)N[C@@H](COC(C)(C)C)C(=O)N(C)[C@@H](CC(C)C)C(=O)N[C@H](C(=O)N2CCCCC2)CC(=O)N(CCc2ccc(C(=O)NC)c(OC)c2)CC(=O)N(C)[C@@H](CC(C)C)C(=O)N[C@@H](CC(C)C)C(=O)N1C` [AP219] ([X11][NMeL]L[NMeAbu]T[Sar][NMeF][NMeL]S(tBu)[NMeL]D-Piperidide; lactam N-11) reads 1.3 ×10⁻⁶ cm/s.
In turn, `CCCCN1CC(=O)N(C)[C@@H](C)C(=O)N[C@@H](COC(C)(C)C)C(=O)N(C)[C@@H](CC(C)C)C(=O)N(CCc2ccc(C(=O)NC)c(OC)c2)CC(=O)N[C@H](C(=O)N2CCCCC2)CC(=O)N[C@H](CC(C)C)C(=O)N(C)[C@@H](Cc2ccccc2)C(=O)N[C@@H](CC(C)C)C(=O)N(C)[C@@H](CC(C)C)C(=O)N[C@@H]([C@@H](C)O)C1=O` [AP220] ([dL][NMeF]L[NMeL]T[NBuGly][NMeA]S(tBu)[NMeL][X11]D-Piperidide; lactam N-11) yielded an apparent permeability (Papp) of 0.8 ×10⁻⁶ cm/s.

The record behind these values is US20230096766A1, “AMINO ACID HAVING FUNCTIONAL GROUP CAPABLE OF INTERMOLECULAR HYDROGEN BONDING, PEPTIDE COMPOUND CONTAINING SAME AND METHOD FOR PRODUCTION THEREOF” (Chugai Seiyaku Kabushiki Kaisha, priority 2018, published 2023).
